The test system of this experiment is SREBP-responsive genes. In words: Short-term in vivo model (fasting/refeeding): hepatic mRNA of SREBP-responsive genes by real-time PCR. Also noted: species or system mice. The method, then:
To quickly and simultaneously examine their SREBP inhibitory activity and VDR-derived calcemic activity in vivo, a short-term in vivo screening system of mice was established. With reference to the previous report (Horton, J. D. et al. Proc. Natl. Acad. Sci. U.S.A. 1998, 95, 5987-5992.), mice were fasted for 48 hours then refed a special diet (low fat, high carbohydrate diet, lacking in vitamin D) for 48 hours before sacrifice.
C57BL/6 and oh/oh mice were purchased from CLEA Japan and Charles River Japan, Inc., respectively. Animal experiments were carried out at the University of Tokyo and Charles River Laboratories. Low fat, high carbohydrate diet, lacking vitamin D was custom made by Research Diets, Inc. Compounds disclosed herein and 25(OH)D3 were dissolved in ethanol/Tween 20 (9:1) to obtain stock solution and then diluted 10-fold with PBS immediately before administration to mice.
10 mg/kg compounds or vehicle control were administered intraperitoneally once every 24 hours during the fasting and refeeding.
Relative mRNA levels of SREBP-responsive genes were determined by real-time PCR in the livers obtained from the mice with free access to a normal diet or fasted and refed a special diet (means SEM, n=3 per group), *p<0.05.
Expression levels of SREBP-responsive genes were determined by real-time PCR in the livers obtained from the mice treated with indicated compounds (10 mg/kg) according to the protocol illustrated in FIG. 5A. Data are expressed as relative expression to the mean value of vehicle-treated mouse liver (means±SEM, n=3 per group), *p<0.05 (FIG. 5C).
Relative mRNA levels of SREBP-responsive genes were determined by real-time PCR in the livers obtained from the indicated mice Data are means±SEM (fed mice, n=3; others, n=6), *p<0.05 (FIG. 5E).
In general terms: In qPCR the cycle at which signal appears reflects the starting amount.

Molecules are shown by their SMILES.

As to `C[C@H](CCC(F)(F)C(C)(C)O)[C@H]1CC[C@H]2/C(=C/Cn3nnnc3-c3ccccc3)CCC[C@]12C` [Compound 50, (R)-3,3-Difluoro-2-methyl-6-{(1R,3aS,7aR,E)-7a-methyl-4-[2-(5-phenyl-1H-tetrazol-1-yl)ethylidene]octahydro-1H-inden-1-yl}heptan-2-ol], the “hepatic expression of SREBP-response genes ACC1 and FASN versus vehicle” value (10 mg/kg intraperitoneally once every 24 hours, fasted 48 h/refed 48 h, n=3, FIG. 5C) was “significantly suppressed”. Also, the “elevated hepatic expression of the three SREBP-responsive genes ACC1, FASN and SCD1” value (10 mg/kg intraperitoneally, fasting/refeeding, FIG. 5C) was “mitigated the elevated expression”. The “elevated hepatic expression of the four SREBP-responsive genes, repeated examination” value (10 mg/kg, increased number of mice (n=6), FIG. 5E) is “significantly mitigated”.

(Values after patent US11932595B2, “VDR-silent vitamin D derivative as inhibitors of SREBP and pharmaceutical use thereof” (KYOTO UNIVERSITY, priority 2020, dated 2024).)
